According to patent US12139480B2, “5-thiazolecarboxamide kinase inhibitor and uses thereof” (iOmx Therapeutics AG, priority 2018, dated 2024):
Like-named read-outs stand apart in the source and are kept apart here.

Experiments:
hERG potassium channel = hERG potassium channel (Homo sapiens, UniProt Q12809); conditions: page 31, NDA 21-986, cited from earlier work
K562 CML cells = conditions: cited from earlier work
ERBB2 = ERBB2 (Homo sapiens, UniProt P04626); assay: single-point (1 uM) inhibition assay (ProQinase Kinase Profiler); type: biochemical; conditions: read-out: % residual activity class (FIG. 3)
JAK1 aa583-1154 wt = target: T1, JAK1 aa583-1154 wt (Homo sapiens, UniProt P23458); assay: as above; type: biochemical
T1 construct: JAK1 aa583-1154 wt; purchased ProQinase, Freiburg, Germany (Kinase Profiler panel)

FGF-R2 = FGF-R2 (Homo sapiens, UniProt P21802); assay: as above; type: biochemical; conditions: read-out: % residual activity class (FIG. 3)
p38-beta = p38-beta (Homo sapiens, UniProt Q15759); assay: biochemical; conditions: read-out: % residual activity class (FIG. 3)
[1] = cited from earlier work
KU812 tumours = conditions: large KU812 tumours (up to >1 g); 50 mg/kg/day for 5 days; cited from earlier work
BMPR1A = target: T2, BMPR1A (Homo sapiens, UniProt P36894); assay: single-point (1 uM) inhibition assay (ProQinase Kinase Profiler); type: biochemical
T2 construct: purchased ProQinase, Freiburg, Germany (Kinase Profiler panel)

NIK = NIK (Homo sapiens, UniProt Q99558); assay: biochemical; conditions: read-out: Residual activity (%) at 1 uM
EPHA2 = target: T3, EPHA2 (Homo sapiens, UniProt P29317); assay: single-point (1 uM) inhibition assay (ProQinase Kinase Profiler); type: biochemical
T3 construct: purchased ProQinase

FLT3 = target: T4, FLT3 (Homo sapiens, UniProt P36888); assay: as above; type: biochemical; conditions: read-out: % residual activity class (FIG. 3)
T4 construct: purchased ProQinase

WNK2 = WNK2 (Homo sapiens, UniProt Q9Y3S1); assay: biochemical; conditions: read-out: Residual activity (%) at 1 uM
EGF-R = target: T5, EGF-R (Homo sapiens, UniProt P00533); assay: single-point (1 uM) inhibition assay (ProQinase Kinase Profiler); type: biochemical; conditions: 1 uM compound, read-out: % residual activity class (FIG. 3)
T5 construct: purchased ProQinase

SRC = target: T6, SRC (Homo sapiens, UniProt P12931); assay: biochemical; conditions: 1 uM compound, read-out: % residual activity class (FIG. 3)
T6 construct: purchased ProQinase

TGFB-R1 = target: T7, TGFB-R1 (Homo sapiens, UniProt P36897); assay: single-point (1 uM) inhibition assay (ProQinase Kinase Profiler); type: biochemical; conditions: 1 uM compound, read-out: % residual activity class (FIG. 3)
T7 construct: purchased ProQinase

B-RAF = target: T8, B-RAF (Homo sapiens, UniProt P15056); assay: as above; type: biochemical
T8 construct: purchased ProQinase

[2] = mouse liver microsomal stability; type: in vitro ADME
LCK = target: T9, LCK (Homo sapiens, UniProt P06239); assay: single-point (1 uM) inhibition assay (ProQinase Kinase Profiler); type: biochemical; conditions: 1 uM compound, read-out: % residual activity class (FIG. 3)
T9 construct: purchased ProQinase

CSF1-R = target: T10, CSF1-R (Homo sapiens, UniProt P07333); assay: as above; type: biochemical; conditions: 1 uM compound, read-out: % residual activity class (FIG. 3)
T10 construct: purchased ProQinase

ERBB4 = target: T11, ERBB4 (Homo sapiens, UniProt Q15303); assay: as above; type: biochemical; conditions: 1 uM compound, read-out: % residual activity class (FIG. 3)
T11 construct: purchased ProQinase

BMX = target: T12, BMX (Homo sapiens, UniProt P51813); assay: as above; type: biochemical; conditions: 1 uM compound, read-out: % residual activity class (FIG. 3)
T12 construct: purchased ProQinase

EPHB3 = target: T13, EPHB3 (Homo sapiens, UniProt P54753); assay: as above; type: biochemical
T13 construct: purchased ProQinase

RAF1 = assay: as above; type: biochemical; conditions: 1 uM compound
KIT = target: T14, KIT (Homo sapiens, UniProt P10721); assay: as above; type: biochemical
T14 construct: purchased ProQinase

BTK = target: T15, BTK (Homo sapiens, UniProt Q06187); assay: as above; type: biochemical; conditions: 1 uM compound, read-out: % residual activity class (FIG. 3)
T15 construct: purchased ProQinase

EPHA8 = target: T16, EPHA8 (Homo sapiens, UniProt P29322); assay: as above; type: biochemical
T16 construct: purchased ProQinase

EPHA5 = target: T17, EPHA5 (Homo sapiens, UniProt P54756); assay: as above; type: biochemical
T17 construct: purchased ProQinase

ABL1 = target: T18, ABL1 (Homo sapiens, UniProt P00519); assay: biochemical; conditions: 1 uM compound, read-out: % residual activity class (FIG. 3)
T18 construct: purchased ProQinase

BRK = target: T19, BRK (Homo sapiens, UniProt Q13882); assay: single-point (1 uM) inhibition assay (ProQinase Kinase Profiler); type: biochemical; conditions: 1 uM compound, read-out: % residual activity class (FIG. 3)
T19 construct: purchased ProQinase

[3] = read-out: % residual activity class (FIG. 3)
[4] = read-out: Residual activity (%) at 1 uM

T8 sequence (P15056 whole entry): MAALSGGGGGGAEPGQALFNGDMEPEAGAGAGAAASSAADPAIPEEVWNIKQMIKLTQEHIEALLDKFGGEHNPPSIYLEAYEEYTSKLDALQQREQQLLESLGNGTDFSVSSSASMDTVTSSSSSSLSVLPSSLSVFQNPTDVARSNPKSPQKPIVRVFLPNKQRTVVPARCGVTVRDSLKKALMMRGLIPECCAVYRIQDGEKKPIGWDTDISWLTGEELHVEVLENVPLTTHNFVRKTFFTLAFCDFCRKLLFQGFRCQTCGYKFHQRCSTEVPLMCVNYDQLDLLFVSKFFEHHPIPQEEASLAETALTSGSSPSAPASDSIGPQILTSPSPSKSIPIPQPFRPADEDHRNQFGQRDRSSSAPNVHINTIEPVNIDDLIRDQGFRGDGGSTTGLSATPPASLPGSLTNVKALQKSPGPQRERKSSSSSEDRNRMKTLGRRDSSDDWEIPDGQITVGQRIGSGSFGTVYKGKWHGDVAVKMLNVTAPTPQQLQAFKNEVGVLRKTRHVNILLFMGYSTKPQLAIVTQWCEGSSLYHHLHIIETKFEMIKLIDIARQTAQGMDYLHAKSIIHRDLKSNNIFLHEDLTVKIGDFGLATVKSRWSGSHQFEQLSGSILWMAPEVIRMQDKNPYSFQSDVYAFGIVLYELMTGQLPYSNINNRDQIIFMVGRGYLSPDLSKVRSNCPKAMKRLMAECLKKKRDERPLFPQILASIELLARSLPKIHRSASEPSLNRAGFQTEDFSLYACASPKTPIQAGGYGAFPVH
T3 sequence (P29317 24-976): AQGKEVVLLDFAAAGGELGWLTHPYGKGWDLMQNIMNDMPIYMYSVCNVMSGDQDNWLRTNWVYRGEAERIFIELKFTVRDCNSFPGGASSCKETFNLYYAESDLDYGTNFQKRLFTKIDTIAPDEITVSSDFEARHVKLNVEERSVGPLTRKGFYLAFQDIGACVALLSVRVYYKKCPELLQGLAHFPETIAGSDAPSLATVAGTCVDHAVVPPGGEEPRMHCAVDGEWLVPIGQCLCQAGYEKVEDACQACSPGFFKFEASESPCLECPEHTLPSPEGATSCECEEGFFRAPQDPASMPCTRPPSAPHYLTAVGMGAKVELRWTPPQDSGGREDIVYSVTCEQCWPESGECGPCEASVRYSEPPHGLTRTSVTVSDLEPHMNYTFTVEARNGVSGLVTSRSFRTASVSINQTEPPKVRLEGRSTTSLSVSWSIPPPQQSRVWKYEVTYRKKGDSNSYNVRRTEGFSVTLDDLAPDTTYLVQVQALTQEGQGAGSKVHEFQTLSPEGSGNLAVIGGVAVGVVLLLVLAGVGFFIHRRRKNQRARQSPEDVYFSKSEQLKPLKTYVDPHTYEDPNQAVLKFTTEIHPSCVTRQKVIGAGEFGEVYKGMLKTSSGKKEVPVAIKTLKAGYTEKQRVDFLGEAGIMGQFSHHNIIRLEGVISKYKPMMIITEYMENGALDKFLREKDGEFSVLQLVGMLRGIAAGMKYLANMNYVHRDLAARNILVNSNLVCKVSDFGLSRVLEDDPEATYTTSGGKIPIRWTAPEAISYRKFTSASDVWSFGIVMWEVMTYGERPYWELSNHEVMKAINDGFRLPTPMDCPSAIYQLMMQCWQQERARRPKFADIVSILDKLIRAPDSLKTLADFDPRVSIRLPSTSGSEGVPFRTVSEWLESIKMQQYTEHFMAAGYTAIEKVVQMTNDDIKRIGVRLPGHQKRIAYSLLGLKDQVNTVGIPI
T2 sequence (P36894 24-532): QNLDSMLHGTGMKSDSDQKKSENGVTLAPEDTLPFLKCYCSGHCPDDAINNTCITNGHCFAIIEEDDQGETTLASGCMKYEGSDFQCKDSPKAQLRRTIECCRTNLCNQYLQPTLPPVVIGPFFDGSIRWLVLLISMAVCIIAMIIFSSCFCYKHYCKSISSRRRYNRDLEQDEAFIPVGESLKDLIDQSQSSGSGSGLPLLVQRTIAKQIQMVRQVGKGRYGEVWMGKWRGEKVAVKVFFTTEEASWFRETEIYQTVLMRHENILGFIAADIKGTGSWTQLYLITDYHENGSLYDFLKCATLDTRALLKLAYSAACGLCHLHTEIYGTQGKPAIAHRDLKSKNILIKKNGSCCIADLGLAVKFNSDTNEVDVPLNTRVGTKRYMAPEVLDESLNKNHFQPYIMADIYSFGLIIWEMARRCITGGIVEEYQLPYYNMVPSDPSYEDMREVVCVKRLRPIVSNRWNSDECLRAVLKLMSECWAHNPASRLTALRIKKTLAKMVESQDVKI
T1 sequence (P23458 583-1154): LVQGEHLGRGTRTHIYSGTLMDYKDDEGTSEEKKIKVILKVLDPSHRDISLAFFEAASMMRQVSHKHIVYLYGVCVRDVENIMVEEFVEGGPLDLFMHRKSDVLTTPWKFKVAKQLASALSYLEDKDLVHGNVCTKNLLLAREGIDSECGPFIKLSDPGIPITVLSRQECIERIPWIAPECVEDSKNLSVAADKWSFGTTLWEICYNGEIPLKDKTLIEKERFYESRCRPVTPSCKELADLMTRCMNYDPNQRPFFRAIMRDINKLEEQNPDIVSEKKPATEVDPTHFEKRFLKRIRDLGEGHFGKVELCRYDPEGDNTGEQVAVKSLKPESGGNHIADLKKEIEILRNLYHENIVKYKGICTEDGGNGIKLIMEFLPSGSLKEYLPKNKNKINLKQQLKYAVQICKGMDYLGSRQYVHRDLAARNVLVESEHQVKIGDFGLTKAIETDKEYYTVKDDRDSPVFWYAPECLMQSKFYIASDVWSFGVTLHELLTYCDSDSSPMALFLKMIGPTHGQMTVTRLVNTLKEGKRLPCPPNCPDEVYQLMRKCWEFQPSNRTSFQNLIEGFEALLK
T14 sequence (P10721 26-976): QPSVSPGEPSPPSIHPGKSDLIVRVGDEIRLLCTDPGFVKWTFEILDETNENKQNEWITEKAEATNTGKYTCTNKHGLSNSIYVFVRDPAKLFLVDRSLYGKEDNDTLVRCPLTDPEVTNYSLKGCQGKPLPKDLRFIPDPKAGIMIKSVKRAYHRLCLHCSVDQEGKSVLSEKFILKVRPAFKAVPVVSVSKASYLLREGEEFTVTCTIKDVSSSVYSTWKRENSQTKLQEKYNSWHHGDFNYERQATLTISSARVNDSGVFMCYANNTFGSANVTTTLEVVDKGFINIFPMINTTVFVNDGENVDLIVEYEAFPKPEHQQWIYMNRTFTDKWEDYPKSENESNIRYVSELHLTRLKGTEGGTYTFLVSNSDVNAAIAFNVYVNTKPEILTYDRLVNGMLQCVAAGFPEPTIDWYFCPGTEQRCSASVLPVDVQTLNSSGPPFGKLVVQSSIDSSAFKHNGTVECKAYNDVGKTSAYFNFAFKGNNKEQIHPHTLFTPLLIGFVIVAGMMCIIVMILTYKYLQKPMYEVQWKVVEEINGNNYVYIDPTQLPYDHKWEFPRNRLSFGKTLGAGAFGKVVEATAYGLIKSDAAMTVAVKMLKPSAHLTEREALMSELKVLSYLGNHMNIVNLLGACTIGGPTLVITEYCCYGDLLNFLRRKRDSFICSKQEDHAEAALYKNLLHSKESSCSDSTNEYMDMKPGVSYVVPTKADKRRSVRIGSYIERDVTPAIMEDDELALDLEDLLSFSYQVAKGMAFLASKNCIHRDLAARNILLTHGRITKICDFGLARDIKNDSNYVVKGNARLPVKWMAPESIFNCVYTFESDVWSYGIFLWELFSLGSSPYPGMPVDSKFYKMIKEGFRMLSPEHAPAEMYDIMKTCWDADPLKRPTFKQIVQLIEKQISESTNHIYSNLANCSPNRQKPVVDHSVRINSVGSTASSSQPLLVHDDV
T17 sequence (P54756 25-1037): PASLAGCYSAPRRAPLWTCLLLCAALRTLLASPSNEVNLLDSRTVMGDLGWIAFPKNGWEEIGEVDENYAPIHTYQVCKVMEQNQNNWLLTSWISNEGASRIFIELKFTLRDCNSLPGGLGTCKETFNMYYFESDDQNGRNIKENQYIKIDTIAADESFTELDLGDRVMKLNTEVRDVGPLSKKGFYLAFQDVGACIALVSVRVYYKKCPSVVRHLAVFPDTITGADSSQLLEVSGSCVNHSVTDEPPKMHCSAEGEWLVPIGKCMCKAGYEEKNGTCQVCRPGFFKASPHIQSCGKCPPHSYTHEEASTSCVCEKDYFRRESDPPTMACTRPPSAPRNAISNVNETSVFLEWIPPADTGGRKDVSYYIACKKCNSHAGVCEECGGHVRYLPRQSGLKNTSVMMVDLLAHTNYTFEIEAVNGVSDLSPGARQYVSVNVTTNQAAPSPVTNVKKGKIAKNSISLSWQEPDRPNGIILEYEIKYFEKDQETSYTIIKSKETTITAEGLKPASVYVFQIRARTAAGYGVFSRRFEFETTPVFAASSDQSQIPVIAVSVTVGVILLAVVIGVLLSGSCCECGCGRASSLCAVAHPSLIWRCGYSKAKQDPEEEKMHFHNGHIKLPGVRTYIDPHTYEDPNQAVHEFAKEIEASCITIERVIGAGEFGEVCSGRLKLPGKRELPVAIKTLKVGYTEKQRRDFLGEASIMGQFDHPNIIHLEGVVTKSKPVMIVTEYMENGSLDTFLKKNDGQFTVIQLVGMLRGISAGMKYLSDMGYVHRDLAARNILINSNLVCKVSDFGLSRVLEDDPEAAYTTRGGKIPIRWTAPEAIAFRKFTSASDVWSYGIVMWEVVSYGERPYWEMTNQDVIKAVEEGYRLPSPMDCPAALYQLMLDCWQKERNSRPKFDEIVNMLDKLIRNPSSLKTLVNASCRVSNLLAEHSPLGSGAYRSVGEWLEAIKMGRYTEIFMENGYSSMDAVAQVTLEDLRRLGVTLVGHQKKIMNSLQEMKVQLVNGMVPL

Question: Which “inhibition of hERG currents” value (hERG potassium channel; 3 uM) does the source give for `Cc1nc(Nc2ncc(C(=O)Nc3c(C)cccc3Cl)s2)cc(N2CCN(CCO)CC2)n1` [Compound A8, N-(2-chloro-6-methylphenyl)-2-((6-(4-(2-hydroxyethyl)piperazin-1-yl)-2-methylpyrimidin-4-yl)amino)thiazole-5-carboxamide, reference compound] here?
Answer: about 6%

Question: And the “inhibition of hERG currents” value (hERG potassium channel; 10 uM)?
Answer: ~36%

Question: What about the survival (K562 CML cells; 10 mg/kg/day) of the same molecule?
Answer: increased survival

Question: And the “survival / intracranial tumour growth” value (K562 CML cells; similar study, dasatinib 10 and 30 mg/kg/day, imatinib 200 mg/kg/day)?
Answer: increased survival

Question: And the remaining activity at 1 µM (ERBB2)?
Answer: 25 to 50%

Question: And the remaining activity at 1 µM (JAK1 aa583-1154 wt; [3])?
Answer: 25 to 50%

Question: And the remaining activity at 1 µM (JAK1 aa583-1154 wt; [4])?
Answer: 41%

Question: What about the remaining activity at 1 µM (FGF-R2) of the same molecule?
Answer: 25 to 50%

Question: And the remaining activity at 1 µM (p38-beta)?
Answer: < 25%

Question: And the cardiac adverse reactions ([1]; 258 patients taking dasatinib)?
Answer: 5.8 % of patients

Question: What about the “cardiomyopathy, heart failure congestive, diastolic dysfunction, fatal myocardial infarction, and left ventricular dysfunction” value ([1]; 258 patients taking dasatinib) of the same molecule?
Answer: 1.6 % of patients

Question: What about the “other cases of severe haemorrhage” value ([1]; all clinical studies) of the same molecule?
Answer: 2 % of patients

Question: What about the “severe central nervous system (CNS) haemorrhages (including fatalities)” value ([1]; all clinical studies) of the same molecule?
Answer: 1 % of patients

Question: What about the “severe gastrointestinal haemorrhage, including fatalities” value ([1]; all clinical studies) of the same molecule?
Answer: 4 % of patients

Question: And the QT prolongation ([1]; clinical trials)?
Answer: up to 1 % of CML patients

Question: What about the severe fluid retention ([1]; clinical trials) of the same molecule?
Answer: up to 10 % of patients

Question: And the tumour response (KU812 tumours)?
Answer: curative

Question: What about the remaining activity at 1 µM (BMPR1A; BMPR1A, 1 uM compound, read-out: % residual activity class (FIG. 3)) of the same molecule?
Answer: 25 to 50%

Question: And the remaining activity at 1 µM (BMPR1A; [4])?
Answer: 42%

Question: With `Cc1nc(Nc2ncc(C(=O)Nc3c(Cl)ccnc3C)s2)cc(N2CCN(CCO)CC2)n1` [Compound B3, N-(4-chloro-2-methylpyridin-3-yl)-2-((6-(4-(2-hydroxyethyl)piperazin-1-yl)-2-methylpyrimidin-4-yl)amino)thiazole-5-carboxamide] as the molecule, how does the remaining activity at 1 µM (NIK) read?
Answer: 100%

Question: What about the remaining activity at 1 µM (EPHA2; [3]) of the same molecule?
Answer: < 25%

Question: And the remaining activity at 1 µM (EPHA2; [4])?
Answer: 0%

Question: What about the remaining activity at 1 µM (FLT3) of the same molecule?
Answer: 25 to 50%

Question: What about the remaining activity at 1 µM (WNK2) of the same molecule?
Answer: 100%

Question: What about the remaining activity at 1 µM (EGF-R) of the same molecule?
Answer: 25 to 50%

Question: What about the remaining activity at 1 µM (SRC) of the same molecule?
Answer: < 25%

Question: What about the remaining activity at 1 µM (TGFB-R1) of the same molecule?
Answer: 25 to 50%

Question: What about the remaining activity at 1 µM (B-RAF; [3]) of the same molecule?
Answer: 25 to 50%

Question: And the remaining activity at 1 µM (B-RAF; [4])?
Answer: ~50%

Question: What about the Half-life [2] of the same molecule?
Answer: 1.03 h

Question: And the remaining activity at 1 µM (LCK)?
Answer: < 25%

Question: What about the remaining activity at 1 µM (CSF1-R) of the same molecule?
Answer: < 25%

Question: What about the remaining activity at 1 µM (ERBB4) of the same molecule?
Answer: < 25%

Question: And the remaining activity at 1 µM (BMX)?
Answer: < 25%

Question: What about the remaining activity at 1 µM (EPHB3; [3]) of the same molecule?
Answer: < 25%

Question: What about the remaining activity at 1 µM (EPHB3; [4]) of the same molecule?
Answer: 3%

Question: What about the “% residual activity class (FIG. 3)” value (RAF1) of the same molecule?
Answer: *** (25% to <50% residual activity)

Question: What about the remaining activity at 1 µM (KIT; [3]) of the same molecule?
Answer: < 25%

Question: What about the remaining activity at 1 µM (KIT; [4]) of the same molecule?
Answer: 5%

Question: And the remaining activity at 1 µM (BTK)?
Answer: < 25%

Question: And the remaining activity at 1 µM (EPHA8; [3])?
Answer: < 25%

Question: And the remaining activity at 1 µM (EPHA8; [4])?
Answer: 3%

Question: What about the remaining activity at 1 µM (EPHA5; [3]) of the same molecule?
Answer: < 25%

Question: And the remaining activity at 1 µM (EPHA5; [4])?
Answer: 1%

Question: And the remaining activity at 1 µM (ABL1)?
Answer: < 25%

Question: And the remaining activity at 1 µM (BRK)?
Answer: < 25%
